Like-named read-outs stand apart in the source and are kept apart here. No end group written: not given here.
Key:
[1] = target: T1, TNF-α-TNFR1 binding (Homo sapiens, UniProt P19438); test: BIAcore (SPR) competitive inhibition of TNF-α-TNFR1 binding
T1 sequence (P19438 30-211 limits assumed): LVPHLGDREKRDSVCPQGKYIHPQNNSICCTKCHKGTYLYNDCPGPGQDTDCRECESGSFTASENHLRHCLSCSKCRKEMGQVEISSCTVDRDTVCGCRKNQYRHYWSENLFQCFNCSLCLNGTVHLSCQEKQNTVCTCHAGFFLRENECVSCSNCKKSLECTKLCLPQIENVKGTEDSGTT

[2] = target: T2, TNF-α (Homo sapiens, UniProt P01375); test: MST binding of Hydrostatin-SN10 to TNF-α; settings: fluorescently labeled TNF-α
[3] = target: T3, TNFR1 (Homo sapiens, UniProt P19438); test: biochemical
T3 sequence (P19438 30-455): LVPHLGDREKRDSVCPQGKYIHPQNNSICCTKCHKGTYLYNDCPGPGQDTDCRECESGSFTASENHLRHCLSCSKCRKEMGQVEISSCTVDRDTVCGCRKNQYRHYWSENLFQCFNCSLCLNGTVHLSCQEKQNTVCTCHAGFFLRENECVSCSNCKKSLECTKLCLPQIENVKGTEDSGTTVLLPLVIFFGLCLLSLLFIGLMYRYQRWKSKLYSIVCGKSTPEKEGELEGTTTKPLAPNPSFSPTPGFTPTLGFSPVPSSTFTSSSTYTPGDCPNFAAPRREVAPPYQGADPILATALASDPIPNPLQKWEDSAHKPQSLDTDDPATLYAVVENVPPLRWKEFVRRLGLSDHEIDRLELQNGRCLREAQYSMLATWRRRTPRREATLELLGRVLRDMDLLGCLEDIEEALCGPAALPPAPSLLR

[4] = system: OXZ-induced acute colitis mouse; test: Oxazolone-induced acute colitis mouse model; assay type: in vivo, Balb/c mice; settings: for body weight change: 400 ug/kg/d i.p. 3 days, FIG. 13; for colon length: 3rd day after enema, FIG. 15; for MPO activity in colon tissue: FIG. 17; for serum IFN-γ level / serum IL-1β level / serum IL-6 level / serum IL-10 (anti-inflammatory factor) / serum TNF-α level: FIG. 18; for pathological changes in colon tissue, HE staining: FIG. 19; for expression of TNF-α in colon tissue sections: FIG. 20
Description: Establishment of an oxazolone-induced mouse colitis animal model: Male Balb/c mice, 6-8 weeks old, were randomly divided into 8 groups, each containing 10 mice. On the first day, the back skin of the mouse was shaved (1.5 cm×1.5 cm), and the normal group was coated with 0.15 mL of acetone/olive oil solution (acetone/olive oil volume ratio of 4:1). The model group and the SN10 group were negatively controlled. The drug and the positive control group were skin-coated with 0.15 mL of 3% (w/v) oxazolone (dissolved in acetone/olive oil solution) for skin pre-sensitization. On the 8th day, the mice were anesthetized by intraperitoneal injection of 4% chloral hydrate. The 3.51 catheter was slowly and gently inserted into the colon of the mouse about 4 cm from the anus. The normal group was injected with 0.1 mL of 50% ethanol, and the other groups were injected with […]. 1% (w/v) oxazolone (dissolved in 50% ethanol), slowly pull out the catheter, keep the mouse vertical, head down position for 60 s, so that the drug solution is fully left in the intestinal lumen. After enema, the normal group and the model group were given intraperitoneal injection of 0.1 mL of normal saline. […] The injection dose was 400 ug/kg/d, and the positive drug group was given 0.1 mL sulfasalazine and intravesical injection of infliximab (dissolved in normal saline) at doses of 400 mg/kg/d and 5 mg/respectively. Each kg/d was administered continuously for 3 days.
The body weight changes, stool characteristics and blood in the stool were observed and recorded daily after enema.
On the 3rd day after enema, the mice were sacrificed by cervical dislocation. The colon and spleen were removed immediately. The length of the colon was measured.
Part of the diseased colon tissue was excised and weighed. MPO) activity in mouse colon tissue was detected using a myeloperoxidase (MPO) assay kit (Nanjing Institute of Bioengineering). MPO is a functional marker and activation marker for neutrophils and is involved in many processes that regulate inflammatory responses. Excessive MPO activity catalyzes the reaction to produce excess oxidants, causing local oxidative stress and oxidative tissue damage.
The colon of the mouse were washed with saline, fixed in 10% formalin. Tissue sections were prepared and stained with HE.

[5] = target: T4, TNFR1-TNF-α binding (Homo sapiens, UniProt P19438); test: MST competitive inhibition of TNFR1-TNF-α binding
T4 sequence (P19438 30-211 limits assumed): T1 sequence (P19438 30-211 limits assumed)
Description: On-machine detection, software fitting to find the KD value. The changes of TNF-α saturation concentration, response amplitude and KD value before and after Hydrostatin-SN10 were compared.

[6] = Plasma half-life in SD rats (ELISA); assay type: in vivo
Description: The assay was performed according to the manufacturer's instructions using an ELISA kit purchased from Genzyme. Serum samples were collected from the […] with heparinized 50 μL capillaries, and blood samples were collected at 1 min, 2 min, 3 min, 5 min, 10 min, 15 min, 20 min, 30 min, 45 min, 1 h, 2 h, 4 h, 6 h, 8 h after treatment. After standing for 2 h, the sample was centrifuged, and the obtained supernatant was stored at −20° C. for testing.

[7] = system: DSS-induced acute colitis mouse; test: Dextran sulfate sodium-induced acute colitis mouse model; assay type: in vivo, Balb/c mice; settings: for body weight change: DSS 2.5% 7 days, 400 μg/kg/d intraperitoneal, FIG. 5; for myeloperoxidase (MPO) activity in colon tissue: FIG. 9; for serum IFN-γ content / serum IL-6 content / serum IL-10 (anti-inflammatory factor) / serum IL-β content / serum TNF-α content: FIG. 10; for colonic lesions, HE staining: FIG. 11; for TNF-α expressed in colon tissue sections: FIG. 12; for colon length: day 7, FIG. 7
Description: The specific implementation steps are as follows: Balb/c mice 6-8 weeks old were randomly divided into 8 groups, each group containing 10 mice.
According to Table 2, the disease activity index (DAI) score was obtained. […] Seven days after the model was established, the mouse were sacrificed by cervical dislocation, and the entire colon and spleen were removed. […] The spleen weight was measured and the spleen index was calculated.

[8] = target: T3, TNFR1; test: biochemical; remark: listed apart in the source
[9] = target: T2, TNF-α; test: BIAcore (SPR) binding of Hydrostatin-SN10 to TNF-α
[10] = Isoelectric point of Hydrostatin-SN10; assay type: physicochemical
[11] = target: T5, TNFR2 (Homo sapiens, UniProt P20333); test: MST binding of Hydrostatin-SN10 to TNFR2
T5 sequence (P20333 23-461): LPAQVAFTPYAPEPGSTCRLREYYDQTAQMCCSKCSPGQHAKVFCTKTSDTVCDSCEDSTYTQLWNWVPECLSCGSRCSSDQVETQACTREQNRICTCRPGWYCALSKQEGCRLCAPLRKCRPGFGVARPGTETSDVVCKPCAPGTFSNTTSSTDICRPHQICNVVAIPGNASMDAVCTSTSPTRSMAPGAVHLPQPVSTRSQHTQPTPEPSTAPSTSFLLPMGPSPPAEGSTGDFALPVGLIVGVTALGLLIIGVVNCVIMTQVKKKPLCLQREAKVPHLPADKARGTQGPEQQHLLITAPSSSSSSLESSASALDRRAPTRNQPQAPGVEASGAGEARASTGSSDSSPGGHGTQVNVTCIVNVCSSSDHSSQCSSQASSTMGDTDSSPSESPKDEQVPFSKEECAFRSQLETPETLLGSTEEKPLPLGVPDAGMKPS

Substance | overall treatment effect in oxazolone-induced colitis ([4]; 400 ug/kg/d i.p.) | body weight change [4] | colon length ([4]; 400 ug/kg/d i.p.) | MPO activity in colon tissue ([4]; 400 ug/kg/d i.p.) | serum IFN-γ level ([4]; 400 ug/kg/d i.p.) | serum IL-1β level ([4]; 400 ug/kg/d i.p.) | serum IL-6 level ([4]; 400 ug/kg/d i.p.) | serum IL-10 (anti-inflammatory factor) ([4]; 400 ug/kg/d i.p.) | serum TNF-α level ([4]; 400 ug/kg/d i.p.) | pathological changes in colon tissue, HE staining ([4]; 400 ug/kg/d i.p.) | expression of TNF-α in colon tissue sections ([4]; 400 ug/kg/d i.p.) | body weight change [7] | overall treatment effect in DSS-induced colitis ([7]; DSS, 400 μg/kg/d i.p.) | myeloperoxidase (MPO) activity in colon tissue ([7]; DSS, 400 μg/kg/d i.p.) | serum IFN-γ content ([7]; DSS, 400 μg/kg/d i.p.) | serum IL-6 content ([7]; DSS, 400 μg/kg/d i.p.) | serum IL-10 (anti-inflammatory factor) ([7]; DSS, 400 μg/kg/d i.p.) | serum IL-β content ([7]; DSS, 400 μg/kg/d i.p.) | serum TNF-α content ([7]; DSS, 400 μg/kg/d i.p.) | colonic lesions, HE staining ([7]; DSS, 400 μg/kg/d i.p.) | other results
H-DEQHLETELH [Hydrostatin-SN10] | effective in the treatment of oxazolone-induced mouse colitis animal model | significantly reduced the weight loss | significantly improved colon length | effective in inhibiting the increase in MPO activity | significantly reduced | significantly reduced | significantly reduced | significantly increased | significantly reduced | significantly attenuated pathological changes in mouse colon tissue | significantly reduced | effective in inhibiting the weight loss | effective in treating DSS-induced colitis animal models | significantly reduce MPO activity | significantly decreased | significantly decreased | significantly increased | significantly decreased | significantly decreased | effectively inhibit colonic lesions caused by DSS | competitive inhibition of the interaction of TNFR1 with TNF-α [1]: competitively inhibits; binding to TNF-α [2]: not binding; binding to TNF-α ([2]; listed as SN10): no binding; Kd [3]: 2.8 µM; disease activity index (DAI) score ([4]; 400 ug/kg/d i.p., FIG. 14): effectively alleviate the symptoms of diarrhea and blood in the stool; spleen index ([4]; 400 ug/kg/d i.p., FIG. 16): significantly down-regulate the mouse spleen index; competitive inhibition of the interaction of TNFR1 and TNF-α [5]: competitively inhibit; half-life ([6]; rat, plasma, ELISA): 2.18 h; disease activity index (DAI) score ([7]; DSS, 400 μg/kg/d i.p., FIG. 6): effectively alleviate the symptoms of diarrhea and blood in the stool; spleen index ([7]; DSS, 400 μg/kg/d i.p., FIG. 8): effectively inhibit spleen changes caused by colitis; TNF-α expressed in colon tissue sections ([7]; DSS, 400 μg/kg/d i.p.): alleviate the degree of inflammation in the colon tissue; colon length ([7]; DSS, 400 μg/kg/d i.p.): significantly improved the colon length; Kd [8]: ~2.8 µM; binding to TNF-α [9]: does not bind; binding to TNF-α ([9]; listed as SN10): no binding; isoelectric point [10]: 4.39; binding to TNFR2 ([11]; fluorescently labeled TNFR2): not binding; binding to TNFR2 ([11]; fluorescently labeled TNFR2, listed as SN10): no binding
PEG-SN10: Hydrostatin-SN10 modified with mPEG2000; carboxyl group of mPEG2000 covalently linked to free amino group of N-terminal aspartic acid (mPEG2000-DEQHLETELH) | effective in the treatment of oxazolone-induced mouse colitis animal model | significantly reduced the weight loss | significantly improved colon length | effective in inhibiting the increase in MPO activity | significantly reduced | significantly reduced | significantly reduced | significantly increased | significantly reduced | significantly attenuated pathological changes in mouse colon tissue | significantly reduced | effective in inhibiting the weight loss | effective in treating DSS-induced colitis animal models | significantly reduce MPO activity | significantly decreased | significantly decreased | significantly increased | significantly decreased | significantly decreased | effectively inhibit colonic lesions caused by DSS | plasma half-life compared with Hydrostatin-SN10 ([6]; after PEG modification): longer plasma half-life; TNF-α expressed in colon tissue sections ([7]; DSS, 400 μg/kg/d i.p.): alleviate the degree of inflammation in the colon tissue; colon length ([7]; DSS, 400 μg/kg/d i.p.): significantly improved the colon length

From patent US20200277355A1 (GUILIN EIGHT PLUS ONE PHARMACEUTICAL CO., LTD., priority 2017, published 2020)
